Experimental findings from article doi:10.1101/2024.02.23.581731v1 (biorxiv, 2024) are described below.

The term IC50 denotes the point on the concentration scale where inhibition reaches its midpoint. Low values mean greater potency in that assay, high ones weaker potency in that assay.

In this assay the target is T1, gp5-HT3AR (Cavia porcellus, UniProt O70212).
T1 sequence (O70212 20-490): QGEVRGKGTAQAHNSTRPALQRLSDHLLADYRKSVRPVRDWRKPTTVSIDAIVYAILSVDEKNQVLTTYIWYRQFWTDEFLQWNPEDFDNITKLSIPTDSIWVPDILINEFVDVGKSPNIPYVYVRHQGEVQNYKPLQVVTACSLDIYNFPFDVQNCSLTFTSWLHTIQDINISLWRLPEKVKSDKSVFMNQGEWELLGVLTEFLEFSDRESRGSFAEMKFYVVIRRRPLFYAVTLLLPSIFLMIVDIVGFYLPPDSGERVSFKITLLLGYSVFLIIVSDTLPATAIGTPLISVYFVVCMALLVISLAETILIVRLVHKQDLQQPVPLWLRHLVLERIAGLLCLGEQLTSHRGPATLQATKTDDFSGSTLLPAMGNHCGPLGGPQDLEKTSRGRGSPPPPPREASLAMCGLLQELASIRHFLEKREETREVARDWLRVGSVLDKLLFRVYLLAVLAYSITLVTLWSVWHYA
In words: FLIPR Blue membrane potential assay, inhibition of 5-HT response. The class given is cell-based.

With `Cc1ccc(Sc2ccccc2N2CCNCC2)c(C)c1` [vortioxetine], the IC50 turned out to be 2350 nM.
